Experimental data reported in ChEMBL document CHEMBL1201862, “PubChem BioAssay data set” (2004).
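The compound was tested at five concentrations on cells cultured in 96-well plates, with a 48-hour exposure period. GI50 is the concentration that inhibits growth by half.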 Calls of active or inactive are those of the source. Cut-off read from the data, not from the text of the source: active = GI50 up to about 1.1 µM and inactive = higher.

Legend:
Assay in all cases: NCI tumour cell line growth inhibition, 48 h
CAKI-1 = test system: CAKI-1
IGROV-1 = test system: IGROV-1
U-251 = test system: U-251
KM12 = test system: KM12
M14 = test system: M14
COLO 205 = test system: COLO 205
HCC 2998 = test system: HCC 2998
EKVX = test system: EKVX
NCI-H23 = test system: NCI-H23
HL-60 = test system: HL-60
A549 = test system: A549
HCT-116 = test system: HCT-116
NCI-H226 = test system: NCI-H226
MOLT-4 = test system: MOLT-4
K562 = test system: K562
SK-MEL-2 = test system: SK-MEL-2
SK-OV-3 = test system: SK-OV-3
OVCAR-5 = test system: OVCAR-5
MDA-MB-435 = test system: MDA-MB-435
MDA-MB-231 = test system: MDA-MB-231

Structure (SMILES)	GI50 (CAKI-1)	GI50 (IGROV-1)	GI50 (U-251)	GI50 (KM12)	GI50 (M14)	GI50 (COLO 205)	GI50 (HCC 2998)	GI50 (EKVX)	GI50 (NCI-H23)	GI50 (HL-60)	GI50 (A549)	GI50 (HCT-116)	GI50 (NCI-H226)	GI50 (MOLT-4)	GI50 (K562)	GI50 (SK-MEL-2)	GI50 (SK-OV-3)	GI50 (OVCAR-5)	GI50 (MDA-MB-435)	GI50 (MDA-MB-231)
CN(Cc1ccccc1)C(=O)c1ccccc1C(=O)O	> 100 µM (inactive)	> 100 µM (inactive)	> 100 µM (inactive)	> 100 µM (inactive)	> 100 µM (inactive)	> 100 µM (inactive)	> 100 µM (inactive)	> 100 µM (inactive)	> 100 µM (inactive)	> 100 µM (inactive)	> 100 µM (inactive)	> 100 µM (inactive)	> 100 µM (inactive)	> 100 µM (inactive)	> 100 µM (inactive)	> 100 µM (inactive)	> 100 µM (inactive)	> 100 µM (inactive)		
N[C@H]1C2C3CC4C5CC(C42)C1(c1ccccc1)C53 (stereo partly specified)	> 100 µM (inactive)	> 100 µM (inactive)	> 100 µM (inactive)	> 100 µM (inactive)	> 100 µM (inactive)	81.3 µM (inactive)	29.7 µM (inactive)	> 100 µM (inactive)	> 100 µM (inactive)	> 100 µM (inactive)	> 100 µM (inactive)	> 100 µM (inactive)	> 100 µM (inactive)	> 100 µM (inactive)	> 100 µM (inactive)	> 100 µM (inactive)	> 100 µM (inactive)	75 µM (inactive)		
C/C(CN1C(=O)c2ccccc2C1=O)=N\NS(=O)(=O)c1ccc(C)cc1	> 100 µM (inactive)	> 100 µM (inactive)	> 100 µM (inactive)	> 100 µM (inactive)	> 100 µM (inactive)	> 100 µM (inactive)	> 100 µM (inactive)	> 100 µM (inactive)	> 100 µM (inactive)	> 100 µM (inactive)	> 100 µM (inactive)	> 100 µM (inactive)	> 100 µM (inactive)	> 100 µM (inactive)	> 100 µM (inactive)	> 100 µM (inactive)	> 100 µM (inactive)	> 100 µM (inactive)		
COC(=O)[C@@H]1c2[nH]c3ccccc3c2C[C@@H]2c3ccccc3NC(=O)[C@@H]21	> 73.6 µM (inactive)	> 100 µM (inactive)	15.4 µM (inactive)	> 100 µM (inactive)	> 78.5 µM (inactive)	> 82.2 µM (inactive)	> 100 µM (inactive)	53.5 µM (inactive)	> 90.8 µM (inactive)	> 100 µM (inactive)	38.8 µM (inactive)	37.3 µM (inactive)	18.3 µM (inactive)	> 100 µM (inactive)	> 100 µM (inactive)	> 62.8 µM (inactive)	20.7 µM (inactive)	> 100 µM (inactive)		
BrC(=C(c1ccc(OC2CCCCO2)cc1)c1ccc(OC2CCCCO2)cc1)c1ccccc1 (stereo unspecified)	> 100 µM (inactive)	> 100 µM (inactive)	> 100 µM (inactive)	> 100 µM (inactive)	> 100 µM (inactive)	> 100 µM (inactive)		> 100 µM (inactive)	> 100 µM (inactive)	> 100 µM (inactive)	> 100 µM (inactive)	> 100 µM (inactive)	> 100 µM (inactive)	> 100 µM (inactive)	> 100 µM (inactive)		> 100 µM (inactive)		> 100 µM (inactive)	> 100 µM (inactive)
CCOC(=O)C1(C/C=C\CBr)CCCC1=O (stereo unspecified)	48.8 µM (inactive)	24.9 µM (inactive)	20.1 µM (inactive)	32.1 µM (inactive)	21.7 µM (inactive)	37.3 µM (inactive)		> 100 µM (inactive)	23.8 µM (inactive)		30.6 µM (inactive)	19.5 µM (inactive)	20.8 µM (inactive)			31.3 µM (inactive)	83.9 µM (inactive)	31.2 µM (inactive)	22.1 µM (inactive)	25.6 µM (inactive)
CCOC(=O)c1c(N2CCCC2)nsc1Nc1ccccc1	> 100 µM (inactive)	> 100 µM (inactive)		> 100 µM (inactive)	> 100 µM (inactive)	> 100 µM (inactive)	> 100 µM (inactive)	> 100 µM (inactive)	> 100 µM (inactive)	> 100 µM (inactive)	> 100 µM (inactive)	> 100 µM (inactive)	> 100 µM (inactive)	> 100 µM (inactive)	> 100 µM (inactive)	> 100 µM (inactive)		44.6 µM (inactive)		> 100 µM (inactive)
COc1cc(C2c3cc4c(c(O)c3C(=O)C3CCC(=O)N32)OCO4)cc(OC)c1OC (stereo unspecified)	47.3 µM (inactive)	61.9 µM (inactive)	> 100 µM (inactive)	51.9 µM (inactive)	42.1 µM (inactive)	5.52 µM (inactive)	32 µM (inactive)	> 100 µM (inactive)	> 100 µM (inactive)	45 µM (inactive)	18.2 µM (inactive)	56.4 µM (inactive)	38.3 µM (inactive)	37.9 µM (inactive)	34.9 µM (inactive)	79.8 µM (inactive)	46 µM (inactive)	> 100 µM (inactive)	18.2 µM (inactive)	
C[C@]12CC[C@H](O)CC1=CC[C@@H]1[C@@H]2CC[C@]2(C)C(=O)/C(=C/c3ccc([N+](=O)[O-])cc3)C[C@@H]12	24.1 µM (inactive)	8.73 µM (inactive)		33.7 µM (inactive)	26.8 µM (inactive)		20 µM (inactive)	8.91 µM (inactive)	18.8 µM (inactive)	36.4 µM (inactive)	13.3 µM (inactive)	13.7 µM (inactive)	2.96 µM (inactive)	> 100 µM (inactive)	59.6 µM (inactive)	17.7 µM (inactive)	8.93 µM (inactive)	19.2 µM (inactive)	52.5 µM (inactive)	
CCC(C)c1c(Cl)nc(Cl)nc1Cl (stereo unspecified)		14.4 µM (inactive)	4.16 µM (inactive)	1.78 µM (inactive)	1.44 µM (inactive)		11.4 µM (inactive)	15.5 µM (inactive)	2.64 µM (inactive)	2.99 µM (inactive)	> 10 µM (inactive)	6.07 µM (inactive)	2.86 µM (inactive)	0.271 µM (active)	2.2 µM (inactive)	20.9 µM (inactive)	36.2 µM (inactive)	16.7 µM (inactive)	2.77 µM (inactive)	
CN(C)C(=S)/N=c1\ssc(=S)n1Cc1ccccn1	6.93 µM (inactive)	7.29 µM (inactive)	3.89 µM (inactive)	1.14 µM (inactive)	2.55 µM (inactive)	2.75 µM (inactive)	4.92 µM (inactive)	3.89 µM (inactive)	3.62 µM (inactive)	3.19 µM (inactive)	3.85 µM (inactive)	2.87 µM (inactive)	6.5 µM (inactive)	3.11 µM (inactive)	0.748 µM (active)	1.94 µM (inactive)	4.67 µM (inactive)	> 100 µM (inactive)		
Clc1ccc(C2Nc3ccccc3C3=NCCN32)cc1 (stereo unspecified)	26.5 µM (inactive)	14.2 µM (inactive)	25.9 µM (inactive)	18.3 µM (inactive)	15.1 µM (inactive)	13 µM (inactive)		25.6 µM (inactive)	19.5 µM (inactive)	22.1 µM (inactive)	32.3 µM (inactive)	12.4 µM (inactive)		36.4 µM (inactive)	15.7 µM (inactive)	19.1 µM (inactive)	26.1 µM (inactive)	29.7 µM (inactive)	16.6 µM (inactive)	23.5 µM (inactive)
O/N=N/c1ccc(Sc2ccc(/N=N/O)cn2)nc1	> 100 µM (inactive)	> 100 µM (inactive)	> 100 µM (inactive)	> 100 µM (inactive)	> 100 µM (inactive)	> 100 µM (inactive)	> 100 µM (inactive)	> 100 µM (inactive)	> 100 µM (inactive)	> 100 µM (inactive)	> 100 µM (inactive)	> 100 µM (inactive)	> 100 µM (inactive)	> 100 µM (inactive)	> 100 µM (inactive)		> 100 µM (inactive)	> 100 µM (inactive)		> 100 µM (inactive)
C[n+]1c(-c2ccc(/C=N\N3CCN(/N=C/c4ccc(-c5cn6ccccc6[n+]5C)cc4)CC3)cc2)cn2ccccc21	20.5 µM (inactive)	57.9 µM (inactive)	27.1 µM (inactive)	55.3 µM (inactive)	48.4 µM (inactive)	27.1 µM (inactive)		70.8 µM (inactive)	27.8 µM (inactive)	21.2 µM (inactive)	> 100 µM (inactive)	70.8 µM (inactive)	33 µM (inactive)	68.7 µM (inactive)		56.8 µM (inactive)	> 100 µM (inactive)	> 100 µM (inactive)	34.5 µM (inactive)	27.3 µM (inactive)
CC(NC(=O)/C(C#N)=C/c1ccc2[nH]ccc2c1)c1ccccc1 (stereo unspecified)	29.3 µM (inactive)	17.2 µM (inactive)	15.9 µM (inactive)	17.3 µM (inactive)	20.6 µM (inactive)	17.1 µM (inactive)	19.8 µM (inactive)	22 µM (inactive)	19.4 µM (inactive)	18.7 µM (inactive)	24 µM (inactive)	14.9 µM (inactive)	24.1 µM (inactive)	20.8 µM (inactive)	23.8 µM (inactive)	20.8 µM (inactive)	21.9 µM (inactive)	17.5 µM (inactive)	13.9 µM (inactive)	
